In patent US7538129B2, “Diazonamide A analog” (Board of Regents, The University of Texas System, priority 2005, dated 2009):
“Also recorded” adds a separate entry of the source.

What was measured:
[1] = test system: neutrophils in peripheral blood; experiment: neutrophil count in peripheral blood; assay type: in vivo, mice; conditions: for neutrophil count in peripheral blood, ANC (cell/ml): FIG. 5B
From the text: The details of the protocol for Examples 19 and 20 are as follows: […]

HCT116 xenografts = experiment: growth inhibition of HCT116 xenografts; assay type: in vivo, mice; conditions: for % Max T/C / Log10 Tumor Cell Kill / #Tumor Free (day): HCT116 (colon)
Description: Details of the preparation of murine models containing xenografts of HCT116 cells or PC-3 cells are described in the section following these examples. After the tumors were grown, therapy utilizing Compound J or paclitaxel was initiated. […] In FIG. 4A, the *'s represent control mice, the squares represent 5 mg/kg Compound J; the diamonds represent 20 mg/kg Compound J; and the slanted line represents 20 mg/kg paclitaxel.
The details of the protocol for Examples 19 and 20 are as follows:
• PC3 prostrate tumor cells and HCT116 colon tumor cells (acquired from the tumor repository Division of Cancer Treatment and Diagnosis (DCTD) of the NCI • Complete RPMI Media • RPMI (Cat# 11875-085, Invitrogen) • 10% Heat-inactivated (30′ 56° C.) Fetal Bovine Serum (Cat# 100-106, Gemini Bio-Products • 2 mM L-glutamine (Cat# 25030-081, Invitrogen) • 0.1 mM MEM Non-Essential Amino Acids Solution (Cat#11140-050, Invitrogen) • 10 U/ml Penicillin/10 μg/ml Streptomycin (Cat#15140-122, Invitrogen) • 1 mM Sodium Pyruvate (Cat#l 1360-070) • Trypsin-EDTA (Cat#25300-054, Invitrogen) • Ca^2+/Mg^2+-free Phosphate Buffered Saline, 5% dextrose in water • Cell Culture Dish 150 mm×25 mm (Cat# 430599, Coming, Inc.) • 10 and 25 ml pipets, standard pipet-aid, p200 and p1000 pipette tips and standard pipetmen • Athymic NCr-nu/nu nude mice at 6-12 weeks of age, either sex (Strain code: 01B74, NCI Frederick Animal Production Program—suppliers include Charles River Labs and Taconic Farms). Female mice of approximately 7 weeks of age were utilized for existing experiments. • Standard 1 cc tuberculin syringe, 30G½ and 25G⅝ needles (Becton Dickinson) • Falcon 5 ml tubes (Cat#352054) • 50 and 15 ml disposable plastic conical tubes (Falcon or similar vendor) • Trypan Blue Solution (0.4%) (Cat#T8154, Sigma) • Hausser phase contrast hemacytometer (Cat# 02-671-54, Fisher) • Ice bucket • Balance for weighing mice (accurate to 0.2 g) • Vernier calipers • Vivarium facility free from known pathogens (nude mice should be housed in isolation from conventional mice if possible—separate rooms or micro-isolator cages equipped with individual air flow; all animal housing, bedding, water should be autoclaved prior to use; standard irradiated mouse chow should be used; animals should be changed out of cages within laminar flow hood; investigators handling mice should be suitably garbed—disposable gown, bonnet, booties, gloves, mask) • AB-5 (Compound J) compound • Ethyl alcohol, 200 proof (Aaper, MFD 041205) • Cremaphor (Cat# C5135, Sigma) • Paclitaxel (Cat#ANP0010, Polymed Therapeutics) Procedure: • 1) Rapidly thaw PC3 or HCT116 cells (if necessary) in 37° C. water bath. Transfer contents to 9ml complete RPMI media. Spin 5′ at 1200 rpm (240 Xg). Discard media and resuspend pellet in 8 ml complete RPMI media. Plate in 100 mm×25 mm cell culture dish in 5% CO2, 37° C. humidified incubator. • 2) Allow to grow for 5-10 days, splitting (aspirate media, wash with 3-5 ml PBS, add 1 ml trypsin-EDTA, incubate 3-5′ at 37° C., add media to desired volume and transfer to multiple plates) 1:8 to 1:10 every 3-4 days as necessary to allow cells to enter phase of logarithmic growth. • 3) When cells are growing well, begin to expand to 150 mm×25 mm dishes. We use 20 ml of media in a 150 mm dish and use 2 ml of trypsin for splitting. When nearly confluent, there should be 2×10^7 cells/150 mm dish. • 4) Plan ahead to time arrival of nu/nu mice such that they can acclimate to animal facility for 1 week prior to injection of tumor cells. […] Plan to inject 10 million cells/mouse and allow for loss of cells/volume during injection process. That is, if 30 mice are to be injected, plan to harvest cells sufficient for at least 35 injections—35×10 million cells=3.5×10^8 cells. In the existing HCT116 experiment, 7.5×10^6 cells were injected per mouse. Five mice per group were utilized for AB-5 treatment and four mice per group were utilized for the control and paclitaxel treatments. […]

SMILES	neutrophil count in peripheral blood, ANC (cell/ml) ([1]; 5 mg/kg)	neutrophil count in peripheral blood, ANC (cell/ml) ([1]; 20 mg/kg)	% Max T/C (HCT116 xenografts; 20 mg/kg, IV)	Log10 Tumor Cell Kill (HCT116 xenografts; 20 mg/kg, IV)	neutrophil proliferation or cell counts in vivo ([1]; FIG. 5B legend)	inhibition of growth of HCT116 xenografts (HCT116 xenografts; FIG. 4A, 20 mg/kg IV)	#Tumor Free (day) (HCT116 xenografts; 5 mg/kg, IP)	% Max T/C (HCT116 xenografts; 5 mg/kg, IP)	Log10 Tumor Cell Kill (HCT116 xenografts; 5 mg/kg, IP)	#Tumor Free (day) (HCT116 xenografts; 5 mg/kg, IV)	% Max T/C (HCT116 xenografts; 5 mg/kg, IV)	Log10 Tumor Cell Kill (HCT116 xenografts; 5 mg/kg, IV)	#Tumor Free (day) (HCT116 xenografts; 20 mg/kg, IP)	% Max T/C (HCT116 xenografts; 20 mg/kg, IP)	Log10 Tumor Cell Kill (HCT116 xenografts; 20 mg/kg, IP)	animals free of tumors (HCT116 xenografts; free of tumors for over five months)	weight loss (HCT116 xenografts; tumor-free animals, over five months)
CC(=O)O[C@H]1C(=O)[C@@]2(C)[C@H]([C@H](OC(=O)c3ccccc3)[C@]3(O)C[C@H](OC(=O)[C@H](O)[C@@H](NC(=O)c4ccccc4)c4ccccc4)C(C)=C1C3(C)C)[C@]1(OC(C)=O)CO[C@@H]1C[C@@H]2O [paclitaxel, reference compound]	reduction of neutrophil counts; also recorded: greatly lowered	reduction of neutrophil counts; also recorded: greatly lowered	0.2%	3.2	–	–	–	–	–	–	–	–	–	–	–	–	–
CC(C)[C@H](O)C(=O)N[C@H]1Cc2ccc3c(c2)[C@]24C5=C(N=C(O5)[C@H](C(C)C)NC1=O)c1ncc(o1)-c1c[nH]c5cccc(c15)-c1cccc2c1NC4O3 (stereo in doubt) [Compound J]	no effect; also recorded: not significantly affected	no effect; also recorded: not significantly affected	0.2%	1.8	no effect	comparable to paclitaxel; also recorded: slows tumor growth in a manner similar to paclitaxel	0/5	41.9%	0.37	0/5	26.5%	0.54	0/5	9.3%	1.0	four of 10	no weight loss
